Source: patent publication US10975116B2, “Methods of treating and preventing gastrointestinal motility disorders using aminosterols” (Enterin, Inc., priority 2013, dated 2021)
“Also recorded” adds a separate entry of the source. Like-named read-outs stand apart in the source and are kept apart here.

Legend:
[1] = system: Parkinson's-like syndrome; assay: Oral squalamine in Parkinson's-like syndrome without GI disorders, single subject; assay type: in vivo, human
From the text: The individual was a person. They were a psychiatrist specializing in addiction. Movement disorder began. Original diagnosis was multiple sclerosis. Presenting symptoms were depression and difficulty in controlling the action of sitting in chair. They would “plop” onto a sit without braking the movement. […] Treatment with L-DOPA caused some correction of the sitting difficulty, leading to the presumptive diagnosis of Parkinson's disease. Therapy continued with increasing doses of Sinemet, followed by addition of ropinirole. Deterioration continued (despite an L-DOPA dose exceeding 10-11 pills/day), ropinirole (5×2 mg and 4×1 mg, daily) and amantadine was added. They were on Wellbutryn for depression. There had been no history of GI disorders, and bowel function was said to be normal.
The individual lived at home with a spouse and 2 children. They had to be driven to work. Walking was unsteady. Their speech was nearly incomprehensible. Face was mask-like. No obvious tremors. Walking was hesitant. Subject had fallen (or tripped) several times previously and used a cane.

mesenteric nerve = assay: Mesenteric nerve multiunit recording after intraluminal squalamine in colon; assay type: in vivo, mouse
From the text: Under appropriate and approved anesthesia, the distal colon of a mouse was externalized from the abdomen, along with the mesentary. The mesenteric blood vessels and lymphatics were carefully dissected from the mesenteric nerve, a structure that contains both the vagus (efferent and afferent) and spinal afferents. The nerve was cut, and the free end (which receives signals from the gut) was introduced into a capillary housing a silver electrode, along with the appropriate electronics required to detect and amplify weak electrical signals pulsing from the gut through the mesenteric nerve. […] Concentrations of 3, 10, 30 and 100 μM squalamine were evaluated. Responses to squalamine application were discernible at 30 μM but robust and reproducible responses were first evident at 100 μM. […] Paired experiments were comparisons of average discharge rates of a control recording period with a three-minute period during the peak response to squalamine. Statistical comparisons were made using paired t-tests. Squalamine increased the background firing rate from (mean±SD) 2.0±1.2 to 5.2±3.1 Hz (P=0.03). The latency to the onset of the firing increase was 4.4±4.1 min, while the latency to peak of the firing rate increase 12±7.5 min (FIG. 1).

[2] = system: colon migrating motor complex (MMC); assay: Colonic motility and intraluminal pressure in excised colon segment; design: species or system mouse; details: squalamine added to the colonic lumen
Procedure: A segment of colon was excised from a mouse, and one end was attached to a glass tube housing a pressure sensor. A video camera recorded the visible contractions of the segment. When squalamine was added to the colonic lumen, the frequency of contractions increased about 2 fold, representing coordinated peristaltic waves that move toward the rectum.

[3] = system: intrinsic primary afferent neurons (IPANs) of the colon; assay: Patch-clamp of IPANs of the colon, squalamine applied to lumen, intact epithelium; assay type: cell-based, mouse; details: 30 μM, brief puff onto lumen/epithelium
From the text: In this experiment the outer adventitial layer of the mouse colon is peeled away exposing the IPANs. Individual IPANs within the myenteric plexus of the wall of the colon are patched using a patch-clamp apparatus. These cells represent the major neuronal population that communicate sensory data from the gut. They synapse with the various nerve networks within the gut that influence muscle and secretory activity, as well as connecting with vagal nerve endings. Administration of squalamine at 30 μM to the lumen (applied via a 50 ms “puff” of solution) leads to a very sustained (10 min) burst of electrical activity (FIG. 3).

[4] = system: Opioid induced constipation; assay: Oral squalamine in opioid (codeine) induced constipation, single subject; assay type: in vivo, human
Procedure: A normal subject began dosing with 1 tab codeine 30 mg/acetaminophen 300 mg at 8 A on Day 1, and repeated on Day 2 and Day 3. Normal bowel movement frequency was 1 or more stools/day, normally formed. Prior to codeine on Day 1, subject passed a normal stool in the AM. No bowel movements from the start of dosing through the 8 A Day 3 dose. No cramping; some gas. Some sense of fullness on the evening of Day 2.
At 9:15 A subject was administered 200 mg cap of squalamine. […] No nausea. […] A second smaller stool was passed at 12:30. […] The rapid effect on colonic motility seems unlikely to have been a direct effect of squalamine on the colon, but perhaps a downstream consequence of enteric nervous system stimulation. On Day 4, 30 mg codeine. No squalamine dosing. 7 P passed a loose stool of normal volume.

[5] = system: mucinous adenocarcinoma (Stage 4b colon cancer); assay: Oral squalamine in Stage 4b colon cancer, single subject; assay type: in vivo, human
Procedure: A person presented with abdominal distention, pain, and progressive weight loss of several months duration.
The individual was begun on a total daily dose of 50 mg of squalamine, administered as 25 mg twice daily, as a powder dispersed in apple sauce. Approximately 6 months after initiation of squalamine treatment the individual was seen again at the hospital due to the chance recognition of a mass on their right kidney. The kidney was surgically removed, and during the procedure the peritoneum explored. […] The mass on the kidney was a benign cyst. Treatment with squalamine continued daily for 5 years. […] The subject died […] of a myocardial infarction.

[6] = system: pancreatic adenocarcinoma; assay: Oral squalamine in Stage 4b pancreatic cancer, single subject; assay type: in vivo, human
Procedure: A person presented with abdominal discomfort, weight loss, and malaise. After considerable medical consultations a diagnosis of pancreatic adenocarcinoma was made. The subject was treated with chemotherapy and experienced a severe adverse reaction, which included ascites and pleural effusion. […] In August 2013, the subject was evaluated for a clinical trial at TGEN in Arizona, but not admitted due to the extensive cancer evident in the pancreas, liver, and nodes.
In late August 2013, the subject was begun on 50 mg/day, then increased to 100 mg/day after a week. The subject began once monthly cycles of cisplatin and 5-FU. […] The overall level of performance of the individual continues to improve, but the ascites and pleural effusions persist. […] All concurrent chemotherapy has stopped. Squalamine treatment continues.

[7] = cited from earlier work; for oral bioavailability: animals (rodents; mice and dogs)
[8] = 100 μM intraluminal, 5 experiments
[9] = intraluminal, 3, 10, 30 and 100 μM evaluated

squalamine
Observations ([1]; Day 1, 100 mg cap): No obvious GI response. Continued | Observations ([1]; Day 21, 100 mg every other day, then began 200 mg every other day): articulation had become noticeably better; also recorded: improving and their energy level was increasing | Observations ([1]; Month 3, subject ran out of squalamine 2 weeks prior (cessation)): worst constipation they had ever remembered.”; also recorded: that he “was not feeling as good” | Observations ([1]; Month 5, 100 mg every other day raised to 200 mg every day at month 5.5): mg every day at month 5.5. No GI; also recorded: colleagues noted improvement. Took; also recorded: several falls which they attributed | Observations ([1]; Month 6, 200 mg every day): Individual could compensate being pulled; also recorded: told me that they felt their balance had improved; also recorded: Still had difficulty initiating; also recorded: No tremor; also recorded: Voice was of low; also recorded: volume. Face was still mask-like; also recorded: Once moving subject walked without; also recorded: Medication dosing had not changed | latency to peak of the firing rate increase (mesenteric nerve; [8]): 12 ± 7.5 min | latency to the onset of the firing increase (mesenteric nerve; [8]): 4.4 ± 4.1 min | mesenteric nerve multiunit firing rate at peak response (mean±SD) (mesenteric nerve; 100 μM intraluminal, 5 experiments, background 2.0±1.2 Hz, P=0.03): 5.2±3.1 Hz | effect on mesenteric nerve firing frequency (FIGS. 1A-1C) (mesenteric nerve; intraluminal squalamine): increases mesenteric nerve firing frequency | concentration at which responses were discernible (mesenteric nerve; [9]): 30 µM | concentration at which robust and reproducible responses were first evident (mesenteric nerve; [9]): 100 µM | increase of the frequency of contractions [2]: about 2 fold | peak pressure of MMC waves ([2]; versus before application): did not differ; also recorded: no apparent effect | duration of burst of electrical activity / action potentials [3]: 10 min | bowel response ([4]; 200 mg cap at 9:15 A on Day 3 of codeine 30 mg/acetaminophen 300 mg, no stool since start, stool at 11:15 A): passed a large soft, well formed stool with normal urgency; also recorded: A sense of bowel relief was appreciated | nausea and rectal fluid ([4]; 200 mg cap at 9:15 A on Day 3 of codeine dosing): No nausea; also recorded: No clear rectal fluid | tumor at surgical exploration of the peritoneum ([5]; 50 mg/day (25 mg twice daily, powder in apple sauce), approximately 6 months): No tumor was visible | recurrence ([5]; daily treatment for 5 years): no recurrence of cancer | PET/CT scan ([6]; 100 mg/day with monthly cisplatin and 5-FU, February 2014): complete loss of all PET active masses | cytology of the peritoneal fluid ([6]; 100 mg/day, ongoing): remains negative for abnormal cells | PET/CT scan ([6]; 50 then 100 mg/day from late August 2013, with monthly cisplatin and 5-FU, early December 2013): dramatic reduction in PET intensity of all previously active cancer | absorption from the gastrointestinal tract ([7]; extensive studies in animals): neither squalamine nor Aminosterol 1436 can be absorbed to any extent | oral bioavailability [7]: low bioavailability | oral bioavailability ([7]; listed as squalamine lactate): poorly bioavailable orally | absorption by the subcutaneous and intraperitoneal routes ([7]; rodents): well absorbed
